Reference: PMC6455008, “Methylation at the C-3′ in D-Ring of Strigolactone Analogs Reduces Biological Activity in Root Parasitic Plants and Rice” (Frontiers in Plant Science, 2019)
Where two headings read alike, the source gives them in different places.

Key:
[1] = system: rice d10 mutant; assay: Rice micro tillering bioassay (d10 mutant, hydroponic); format: in vivo; conditions: for inhibition at 2.5 µM: Oryza sativa, read-out: tillering inhibition; for number of tillers per plant: SL-deficient d10 mutant, hydroponic, twice a week up to 3 weeks, untreated d10 six tillers
Protocol: Rice seeds (d10) were sterilized with 2.5% sodium hypochlorite for 15 min. After thorough washing with sterile MilliQ water, the seeds were kept in water for 2 days at 30°C in the dark for imbibition and pre-germination. The pre-germinated seeds were then transferred to moist filter paper in 90-mm petri plates and incubated at 30°C overnight. The plates with germinated seeds were then shifted in a growth cabinet with fluorescent white light (130–180 μM m^−2 s^−1) for 1 week. Seven days-old seedlings were moved to 50-ml falcon tubes (one seedling per tube) containing modified half-strength Hoagland nutrient solution in greenhouse. After 1 week, rice plants were treated with 2.5 μM of each SL analog. Mock and GR24 (2.5 μM) were included as control treatments. Six applications of each SL analog were done two times in a week. After 3 weeks of application, number of tillers per plant, plant height, and fresh biomass were measured at final harvest.

[2] = system: Arabidopsis seedlings; assay: Arabidopsis hypocotyl elongation assay; format: in vivo; conditions: compared to control seedlings; for inhibition of hypocotyl growth (reduction in hypocotyl length): 1.0 μM
Protocol: (§1) The sterilized Arabidopsis seeds were grown in petri plates that were first kept at 4°C in darkness for 3 days. For hypocotyl study, the petri plates were exposed to continuous white light for 24 h, then transferred to continuous monochromatic red light (20 μmol m^−2 s^−1, 22°C) conditions for another 4 days. For lateral root density, the plates were vertically grown at 22°C in Percival incubator under long day conditions (16 h at 22°C/8 h at 16°C day/night, 60% relative humidity, 60–70 μmol m^−2 s^−1 white light) for 8 days. After scanning, the hypocotyl length and number of lateral roots were recorded using publicly available ImageJ software.^1

[3] = system: Arabidopsis seedlings; assay: Arabidopsis lateral root density assay; format: in vivo; conditions: compared to control seedlings; for inhibition of lateral root density: 1.0 μM
Protocol: as §1

[4] = system: S. hermonthica seeds; assay: Parasitic seed germination bioassay, Striga; format: in vivo, Striga hermonthica; conditions: for Striga germination rate: 1.0 μM, formulated and non-formulated, 24 h at 30°C; for EC50: Striga hermonthica
Protocol: (§3) Germination activity of SL analogs on S. hermonthica and P. aegyptiaca seeds was tested by following the procedure described before ([Jamil et al., 2012]). The preconditioned Striga and Phelipanche seeds were treated with 50 μl of each SL analog solution at a concentration range (10^−5–10^−12 M). GR24 and sterile MilliQ water were included as positive and negative controls, respectively. The treated seeds were allowed to germinate in the dark for 24 h at 30°C (for Striga) and for 1 week at 25°C (for Phelipanche). The germinated and non-germinated seeds were counted under a binocular microscope, and germination rate (in %) was calculated.
(§4) Collected data were analyzed statistically using statistical software package R (version 3.2.2).

[5] = system: P. aegyptiaca seeds; assay: Parasitic seed germination bioassay, Phelipanche; format: in vivo, Phelipanche aegyptiaca; conditions: for EC50: Phelipanche aegyptiaca; for P. aegyptiaca germination rate: non-formulated, 1.0 μM, 1 week at 25°C
Protocol: as §3, §4

[6] = system: Striga seeds; assay: Stability of formulated SL analogs in aqueous solution under storage (Striga germination readout); format: physicochemical, Striga hermonthica; conditions: 1.0 μM
Protocol: The stability of formulated SL analogs was further tested in sand culture. About 1.5 ml of silver sand was added in each of 6 wells of 24-well plates. Then, 800 μl of formulated SL analogs (1.0 μM) was added in each of the six wells. The plates were sealed firmly with para-film, wrapped in aluminum foil, and placed at 30°C from day 1 to day 7. After 7 days, glass fiber discs containing preconditioned Striga seeds were placed on the top of each of the six wells and incubated in the dark at 30°C for 24 h. The germinated and non-germinated seeds were counted from each disc. In addition, the viability of formulated SL analogs was also tested in aqueous solution for 7 weeks at 30°C. About 800-μl aqueous solution of formulated SL analogs (1.0 μM) was added in a black Eppendorf tube weekly up to 6 weeks and incubated at 30°C. On the seventh week, about 50 μl of each analog was applied on a glass fiber disc containing preconditioned Striga seed and put again in the dark in sealed petri plates at 30°C for 24 h. Germinated and non-germinated seeds were counted from each disc.

[7] = target: T1, ShHTL7 (Striga hermonthica, UniProt A0A0M3PNA2); assay: In vitro YLG hydrolysis competition assay, ShHTL7; format: biochemical; conditions: 3.0 μM protein, 1.0 μM YLG, 60 min, room temperature; read-out: IC50, competitive inhibition of ShHTL7-mediated YLG hydrolysis
T1 sequence (A0A0M3PNA2 1-271): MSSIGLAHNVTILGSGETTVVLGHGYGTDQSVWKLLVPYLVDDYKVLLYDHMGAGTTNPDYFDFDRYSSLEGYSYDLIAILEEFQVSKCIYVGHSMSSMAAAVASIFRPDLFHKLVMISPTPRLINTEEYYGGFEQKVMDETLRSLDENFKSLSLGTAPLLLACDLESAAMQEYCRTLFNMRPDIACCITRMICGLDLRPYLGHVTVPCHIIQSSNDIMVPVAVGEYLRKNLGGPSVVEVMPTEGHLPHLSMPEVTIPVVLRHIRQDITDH
Protocol: (§2) Protein expression and purification of ShHTL7 and Oryza sativa D14 (OsD14) was carried out according to the procedure described earlier ([Jamil et al., 2018]). In vitro Yoshimulactone Green (YLG) hydrolysis assays ([Tsuchiya et al., 2015]) were carried out using 3.0 μM of protein ShHTL7 and OsD14 in a reaction buffer (1X PBS buffer, pH 7.3) with 0.1% DMSO at a 100-μl volume on a 96-well black plate (Greiner). For competitive assays, rac-GR24, AR8, MP13, and MP26 (at range between 0.01 and 50 μM) were co-incubated with 1.0 μM of YLG (Tokyo Chemical Industry Co. Ltd., product number E1238) for 60 min at room temperature. Fluorescent intensity was measured by spectraMax i5 (Molecular Devices) at excitation by 480 nm and detection by 520 nm. The change in fluorescence observed over the course of 1 h of YLG in buffer without protein was subtracted from the data collected in presence of protein. IC50 values were calculated by GraphPad (Prism 7).

[8] = target: T2, OsD14 (Oryza sativa subsp. japonica, UniProt Q10QA5); assay: In vitro YLG hydrolysis competition assay, OsD14; format: biochemical
T2 construct: made in house
T2 sequence (Q10QA5 1-318): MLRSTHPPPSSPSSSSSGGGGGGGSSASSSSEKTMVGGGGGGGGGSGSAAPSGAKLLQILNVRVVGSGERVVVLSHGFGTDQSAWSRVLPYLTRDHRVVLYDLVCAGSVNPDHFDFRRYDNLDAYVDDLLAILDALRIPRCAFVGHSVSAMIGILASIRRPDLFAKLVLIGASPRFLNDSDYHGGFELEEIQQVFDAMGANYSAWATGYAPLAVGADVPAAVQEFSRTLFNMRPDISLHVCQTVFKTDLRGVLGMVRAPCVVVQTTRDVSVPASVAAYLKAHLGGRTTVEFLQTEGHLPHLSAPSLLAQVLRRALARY
Protocol: as §2

[9] = read-out: EC50 Striga seed germination, formulated
[10] = read-out: EC50 Striga seed germination, non-formulated
[11] = read-out: EC50 P. aegyptiaca seed germination, formulated
[12] = read-out: EC50 P. aegyptiaca seed germination, non-formulated

Structure (SMILES) | inhibition at 2.5 µM [1] [%] | number of tillers per plant ([1]; 2.5 μM) [tillers per plant] | plant height compared to mock ([1]; d10 mutant, 2.5 μM) | inhibition at 1 µM ([2]; Arabidopsis thaliana, read-out: inhibition of hypocotyl growth (reduction in hypocotyl length)) [%] | inhibition at 1 µM ([3]; Arabidopsis thaliana) [%] | Striga germination rate [4] | EC50 [4, 9] [nM] | EC50 [4, 10] [nM] | EC50 [5, 11] [nM] | EC50 [5, 12] [nM] | P. aegyptiaca germination rate [5] | Striga germination rate after 6 weeks of storage ([6]; 30°C, 6 weeks) [%] | Striga germination rate before storage [6] [%] | IC50 [7] [nM] | IC50 [8] [nM] | inhibition of hypocotyl growth (reduction in hypocotyl length) [2] | inhibition of lateral root density [3] | Striga germination rate after 1 week's storage ([6]; 30°C) | Striga germination activity after 2 weeks of storage ([6]; 30°C, 2 weeks)
COC(=O)/C=C/C(C)=C/OC1C=C(C)C(=O)O1 (stereo not drawn) [MP26, (2E,4E)-methyl 4-methyl-5-(4-methyl-5-oxo-2,5-dihydrofuran-2-yloxy)penta-2,4-dienoate] | 57 | 2.5 | significant increase in plant height | 15 | 43 | 37–70% | 98 | 350 | 99 | 520 | around 68% | 4 | 69 | 5300 ± 710 | 2070 ± 800 | – | – | – | –
CC1=CC(O/C=C(\C)C=O)OC1=O (stereo not drawn) [MP13, (E)-2-methyl-3-[(4-methyl-5-oxo-2,5-dihydrofuran-2-yl)oxy]acrylaldehyde] | 23 | 4.5 | – | – | – | 37–70% | 110 | 640 | 250 | 32 | around 68% | – | 53 | 3870 ± 900 | 3450 ± 1200 | did not lead to a significant effect | did not lead to a significant effect | 9% | not detectable
CC1=C(C)C(O/C=C(\C)C=O)OC1=O (stereo not drawn) [AR8, reference compound] | – | 5.6 | – | – | – | 9% | 990 | 690000 | 320 | 970 | 32% | – | – | 6900 ± 970 | 4870 ± 780 | did not lead to a significant effect | did not lead to a significant effect | total loss of activity | –
